What was measured:
Assay type in all cases: cell-based, mouse
collagen type 1 (Col1a1) = test: Expression of extracellular matrix constituent factor Col1a1 (RT-PCR) in NIH3T3 cells; conditions: 50 μM or 100 μM peptide, 24 hours, FIG. 2 and FIG. 3
Procedure: (§1) In this example, the aim was to confirm the effect of the peptide according to an example on improving endogenous skin aging, including improvement of wrinkles and enhancement of elasticity, etc., by evaluating the expression levels of collagen type 1 (Col1a1), fibronectin, or elastin, which are known components of the dermis.
(§2) Specifically, NIH3T3 cells were seeded in a 6-well plate at a density of 3×10^5 cells/well and cultured for 24 hours. The cells were then washed once with serum-free DMEM media, and the culture medium was replaced with serum-free DMEM media. Thereafter, 50 μM or 100 μM of the peptide consisting of the amino acid sequence of SEQ ID NO: 1 was dispensed into the medium, and cultured in a CO2 incubator at 37° C. for 24 hours. The culture was then washed twice with PBS, and RNA was isolated from the culture using easy blue (iNtRON, Korea). Using an RT kit (Enzynomics, Korea), 1 μg of the isolated RNA was reverse transcribed to synthesize the respective cDNA. Polymerase chain reaction (PCR) was then performed using the cDNAs and primers Col1a1, fibronectin, and elastin. Meanwhile, the untreated group was used as the control group, and the group to which TGF-β1 was added (TGF-β1) was used as the positive control group, the nucleotide sequences of the primers used in this example are shown in Table 2 below.

elastin = test: Expression of extracellular matrix constituent factor elastin (RT-PCR) in NIH3T3 cells; conditions: 50 μM or 100 μM peptide, 24 hours, FIG. 2 and FIG. 3
Procedure: as §1, §2

fibronectin = test: Expression of extracellular matrix constituent factor fibronectin (RT-PCR) in NIH3T3 cells; conditions: 50 μM or 100 μM peptide, 24 hours, FIG. 2 and FIG. 3
Procedure: as §1, §2

NIH3T3 cells [1] = test: Proliferation of skin cells (SRB staining, survival rate of NIH3T3 cells); conditions: 50 μM or 100 μM peptide, 72 hours, serum-free DMEM, SRB absorbance at 560 nm, FIG. 1
Procedure: In this example, the aim was to confirm the effect of a peptide according to an example on proliferation of skin cells, by evaluating changes in survival rate of NIH3T3 cells, which are mouse fibroblasts.
Specifically, NIH3T3 cells were seeded in a […] at a density of 5×10^3 cells/well and cultured for 24 hours. The cells were then washed once with serum-free DMEM media, and the culture medium was replaced with serum-free DMEM media. Then, 50 μM or 100 μM of the peptide consisting of the amino acid sequence of SEQ ID NO: 1 was dispensed into the medium, and cultured in a CO2 incubator at 37° C. for 72 hours. The culture was then washed twice with PBS and treated with 4% paraformaldehyde (PFA) solution for 15 minutes to fix the cultured cells. The culture was then washed twice with distilled water, treated with SRB solution for 1 hour to stain the cells, washed with 1% acetic acid solution, and dried. The dried culture was then dissolved in 20 mM Tris buffer solution and the absorbance at 560 nm was measured using a microplate reader (Molecular Devices, USA). In this example, the untreated group was used as the control group, and the group to which insulin-like growth factor was added (IGF) was used as the positive control group.

NIH3T3 cells [2] = test: Inhibition of apoptosis of skin cells induced by ultraviolet rays (SRB survival rate); conditions: 50 μM or 100 μM peptide, 6 J/cm2 ultraviolet rays, 72 hours, FIG. 4
Procedure: In this example, the aim was to confirm the effect of the peptide according to an example on the inhibition of apoptosis or cell recovery of skin cells induced by ultraviolet rays, by evaluating the change in survival rate of skin cells whose apoptosis was induced by ultraviolet irradiation.
Specifically, NIH3T3 cells were seeded in a […] at a density of 1×10^4 cells/well and cultured for 24 hours. The cells were then washed once with serum-free DMEM media, the culture medium was replaced with serum-free DMEM media, and 50 μM or 100 μM of the peptide consisting of the amino acid sequence of SEQ ID NO: 1 was dispensed to the culture medium. The culture medium dispensed with the peptide was cultured in a CO2 incubator at 37° C. for 1 hour, transferred to an e-tube, mixed with 100 ul of PBS, and dispensed into a well plate. Afterwards, using a UV irradiator (VILBER LOURMAT, France), 6 J/cm2 ultraviolet rays were irradiated to NIH3T3 cells. The PBS in the well plate was then removed, 900 μL of the culture medium in which the peptides were dispensed was added, and the plate was cultured in a CO2 incubator at 37° C. for 72 hours. […] The dried culture was then dissolved in 20 mM Tris buffer solution and the absorbance at 560 nm was measured using a microplate reader (Molecular Devices, USA). […]

NIH3T3 cells [3] = test: Antioxidant effect on skin cells induced by ultraviolet rays (reactive oxygen species, DCF-DA, FACS); conditions: 50 μM or 100 μM peptide, 6 J/cm2 ultraviolet rays, 24 hours, FL1 fluorescence by flow cytometry, FIG. 5
Procedure: In this example, the aim was to confirm the effect of the peptide according to an embodiment on the antioxidant effect of skin cells induced by ultraviolet rays, by evaluating the level of reactive oxygen species in skin cells increased by ultraviolet irradiation.
Specifically, NIH3T3 cells were seeded in a 6-well plate at a density of 5×10^5 cells/well and cultured for 24 hours. The cells were then washed once with serum-free DMEM media, the culture medium was replaced with serum-free DMEM media, and 50 μM or 100 μM of the peptide consisting of the amino acid sequence of SEQ ID NO: 1 was dispensed to the culture medium. The culture medium dispensed with the peptide was cultured in a CO2 incubator at 37° C. for 1 hour, transferred to an e-tube, mixed with 100 ul of PBS, and dispensed into a well plate. Afterwards, using a UV irradiator (VILBER LOURMAT, France), 6 J/cm2 ultraviolet rays were irradiated to NIH3T3 cells. The PBS in the well plate was then removed, 900 μL of the culture medium in which the peptides were dispensed was added, and the plate was cultured in a CO2 incubator at 37° C. for 24 hours. The culture was then treated with DCFG-DA (2′,7′-dichlorofluorescin diacetate), wrapped in foil, and cultured in a CO2 incubator at 37° C. for 30 minutes. […] After washing the centrifuged cells with PBS, FL1 fluorescence values were measured through flow cytometry (FACS, BD, USA). […]

SHNFREEPEMRR (Peptide 1) [SEQ ID NO: 1]
expression of Col1a1 (collagen type 1 (Col1a1)): increased
expression of elastin (elastin): increased
expression of fibronectin (fibronectin): increased
proliferation of fibroblasts (NIH3T3 cells [1]): promoted
cell survival rate of fibroblasts reduced by ultraviolet irradiation (NIH3T3 cells [2]): restored
level of reactive oxygen species in fibroblasts increased by ultraviolet irradiation (NIH3T3 cells [3]): reduced

From patent US20250295570A1, “PEPTIDE HAVING ACTIVITY OF IMPROVING STATE OF SKIN, AND USE THEREOF” (CAREGEN CO., LTD., priority 2021, published 2025)
